Reference: US8940911B2, “Squarylated lactones inhibitors for bacterial biofilm formation” (Syracuse University, priority 2012, dated 2015)

Legend:
E. coli RP437 = test: Static biofilm inhibition assay (crystal violet, 96-well plate); type: cell-based, Escherichia coli; details: E. coli RP437, 200 μM, 24 h, crystal violet
Excerpt: A primary objective was to test the ability of SHLs to inhibit biofilm formation against E. coli RP437. […] Viable controls were required that would allow us to measure and compare the activity of SHLs against known biofilm inhibitors and naturally occurring AI-1 signal molecules. […] The activity of this class of molecule is presumably similar or even marginally higher than that of brominated furanone (BF8 48) (56%).
For the present invention, the E. coli RP437 biofilms were allowed to develop in a 96-well plate in the absence or presence of SHLs. After 24 hours, the planktonic bacteria and remaining media were removed and the crystal violet was introduced in the wells. The bacterial biofilm being formed at the air/liquid interface on the inside wall of the well is stained readily by crystal violet. After removing the excess crystal violet and repeatedly washing the wells with water, followed by ethanol solubilization of the dye, allows quantification of the amount of biofilm by spectrophotometry (OD600). […] We believe that the observed biofilm inhibition activity cannot be directly attributed to any predominant structural feature inherent in the SHLs. Rather, the small deviations in the structures of the SHLs and their effect on biofilm formation could be a result of the nature of non-covalent forces that arise during SHLs presumed binding within the receptor active site.
An overnight culture of E. coli RP437 grown in LB media (OD600 of 1.0) containing streptomycin (10 μg/mL) was subsequently sub-cultured to an OD600 of 0.04 (1:100 dilution with LB media). To each well in the solvent resistant polypropylene or polystyrene-based 96-well microtiter plates were added 200 μL of the sub-cultured bacteria respectively. To each of the wells containing the bacterial cultures varying concentrations of the synthetic molecules was added and the contents in each well were gently mixed. Control wells comprised of untreated bacterial culture (four replicates) and the LB media (four replicates). The microtiter plates were then covered and wrapped in a Saran wrap and allowed to incubate at 37° C. for 24 hours without shaking. After that time, the microbial medium in each well was discarded and the remaining biofilm that was formed during incubation was stained with 225 μL of a 0.1% crystal violet solution and allowed to incubate at room temperature for 30 minutes. After the incubation period, the crystal violet was discarded and the wells were gently washed twice with water (230-250 μL) and allowed to air dry for 15-20 minutes. For the purpose of solubilizing the remaining crystal violet that had stained the biofilm present in the interior of the 96-well plates, a 250 μL solution of 95% ethanol was used. After the addition of 95% ethanol, the contents of each well were mixed thoroughly and allowed to sit for 15-20 minutes. Finally, the biofilm formed was quantified by transferring 100 μL of the ethanol solution into a fresh polystyrene microtiter dish that was subsequently read by an absorbance plate reader (A600). After elimination of background absorbance, the percentage inhibition was calculated by dividing the amount of absorbed crystal violet in wells that contained the synthetic compound by the amount of absorbed crystal violet in wells that contained bacteria only (control). Biofilm assays for each synthetic compound were repeated two to three times and each concentration considered for inhibition studies were tested over four replicates.

[1] = system: DsRed-express-labeled E. coli RP437; test: Confocal imaging of E. coli biofilms on stainless steel coupons (COMSTAT); type: cell-based, Escherichia coli; details: 200 μM, 24 h at 37° C., CLSM/COMSTAT
Description: The effects of SHLs upon the bacterial biofilm were examined; more specifically, the effect of SHLs upon the biofilm architecture. […] These studies were conducted by static biofilm assays employing crystal violet staining that indicates the total biomass that resides within a biofilm but provides no indication regarding the topology of the biofilms. To elucidate the topological features assumed by the E. coli RP437 biofilm in the presence of SHLs and BF8 48, studies of biofilms consisting of DsRed-express-labeled E. coli RP437 that is fluorescent and can be easily visualized by confocal laser scanning microscopy (CLSM) were performed. […] Further, the stacked images in vinyl-SHL 3 indicating the maximum thickness of the biofilm is considerably smaller than the biofilms in BF8 48 and the untreated E. coli samples. We developed the biofilms consisting of DsRed-express-labeled E. coli on stainless steel coupons (316 L, 1 in×1 in.) for 24 h at 37° C. that were treated with BF8 48 or SHLs or were left untreated. All the samples were analyzed with CLSM (see FIG. 8) and the maximum thickness of biofilms calculated using the COMSTAT software. […] Moreover, butyl-SHL 8 and butoxy-SCPA 46 reduce the biofilm thickness by 38% and 27%, respectively.
An overnight culture of E. coli RP437 pRSH103 grown in LB media (OD600 of 1.0) containing tetracycline (3 μg/mL) was subsequently sub-cultured to an OD600 of 0.04 (1:100 dilution with LB media). To each well in the solvent resistant polypropylene or polystyrene-based 24-well microtiter plates was added 200 μM synthetic molecules in DMSO solution respectively. In addition, to each of the wells containing the known concentrations of synthetic molecules was added 2 mL of the sub-cultured bacteria and the contents in each well were gently mixed. […] The fluorescent emission was detected with a LP 560 nm emission filter. The coupons were gently placed upside down on a microscope cover glass (24×60 mm, No. 2, VWR International LLC, West Chester, Pa., USA) and analyzed with CLSM. […]

SK-N-SH cells = test: Human neuroblastoma cancer cell cytotoxicity assay (CCK-8); type: cell-based; details: 200 or 300 μM, 1 h exposure, read after 24 h
Description: After examining the efficacy of SHLs at inhibiting biofilm, dispersing established biofilms, and reducing the maximum thickness of biofilms without being toxic to the planktonic bacterial cells, we tested the cytotoxicity of the key potent SHLs on the human neuroblastoma cancer cell line SK-N-SH. These studies were conducted such that the SK-N-SH cells were subjected to the maximum concentrations of the key potent SHLs tested on bacteria.
A previously grown T-flask of SK-N-SH cells was observed under a microscope to confirm the confluence of the cells. Next, the old media was discarded and the adherent cells were washed with ˜10 mL of MEM(−). The wash was discarded and 2 mL of Trypsin-EDTA solution was added to the T-flask and incubated for 10 minutes at 37° C. and at 5% atmosphere of CO2. Afterwards, the flask was viewed under a microscope to determine if the cells were suspended in the solution. Subsequently, ˜8 mL of MEM(+) was added to the flask and carefully mixed via pipette to break-up any large clusters of cells. 100 μL of the culture was added to an Eppendorf tube and combined with 100 μL of […]. A hemocytometer and glass cover slide was carefully cleaned with a kimwipe and ethanol. Placing the glass cover slide on top of the hemocytometer, 10 μL of the mixture in the Eppendorf tube was pipetted into the two grooves on the hemocytometer, avoiding the generation of bubbles. The hemocytometer was viewed one chamber at time under a microscope and the live cells were counted using the hemocytometer cell counting method. The remaining cell culture in the T-flask was diluted with MEM(+) to 25 mL such that there would be ˜5000 cells/mL. 100 μL of the culture was placed into wells on a 96 well plate such that one column had only MEM(+) and the wells on the outer perimeter of the plate were left empty. Four plates were made in this manner so that there would be plates for times 0, 24, 48, and 72 h. The plate was then incubated for 24 h at 37° C. and at 5% atmosphere of CO2. Subsequently, the old media was discarded and the wells were subjected to either 200 μM or 300 μM solutions of compounds 3, 4, 8, and 46 in MEM(+) (100 μL) such that one column still contained only MEM(+) and one column contained MEM(+) and untreated cells. The plate was incubated for 1 h and then the solutions were discarded and fresh MEM(+) media was added (100 μL). Each plate was then incubated for the desired time (0, 24, 48, or 72 h). After incubation, 10 μL of CCK-8 solution was added to each well and then the plate was incubated for 2 h followed by reading the OD450 with a microplate reader.

[2] = system: P. aeruginosa PAO1-GFP/pSMC2; test: Confocal microscopy analysis of P. aeruginosa biofilms (COMSTAT); type: cell-based, Pseudomonas aeruginosa; details: 400 μM, 24 h at 37° C., CLSM/COMSTAT
Description: FIG. 13 is a series of representative confocal laser scanning microscopy images of biofilm formation by P. aeruginosa PAO1-GFP/pSMC2 in the absence of inhibitor (A); and in the presence of 400 μM BF4 49 (B); 400 μM hexyl-SHL 9 (C); 400 μM tolyl-SHL 11 (D); and 400 μM thienyl-SHL 12 (E).
FIG. 14 is a graph of quantification of biofilm formation by P. aeruginosa PAO1-GFP/pSMC2 in the absence and presence of 400 μM SHLs 9, 11 and 12. Biomass, mean thickness, and surface area are quantified from fluorescence image using COMSTAT software. Z-Stack images from at least four different locations were used. Values are normalized by that of the brominated furanone-free control.
We developed the biofilms consisting of […] P. aeruginosa on stainless steel coupons (316 L, ⅜ in×⅜ in.) for 24 h at 37° C. in the absence or presence of 400 μM hexyl-SHL 9, tolyl-SHL 11, thienyl-SHL 12, and BF4 49. All the samples were analyzed with CLSM (see FIG. 13) and the biomass, surface area, and mean thickness of biofilms were calculated using the COMSTAT software. Tolyl-SHL 11 reduced the biomass by ˜90%, similar to that of the toxic BF4 49.

SMILES | biofilm inhibition (in words) (E. coli RP437) | inhibition of biofilm formation (E. coli RP437) | further results
CCCCOc1c(OCCCC)c(=O)c1=O [BSQ 44, 3,4-dibutoxy-cyclobut-3-ene-1,2-dione, reference compound] | Poor biofilm inhibition | – | –
CC(C)Oc1c(OC(C)C)c(=O)c1=O [IPSQ 42, reference compound] | Poor biofilm inhibition | – | –
C=CCc1c(NC2CCOC2=O)c(=O)c1=O (stereo not drawn) [allyl-SHL2] | Poor biofilm inhibition | – | –
CCCCOc1c(NC2CCOC2=O)c(=O)c1=O (stereo not drawn) [butoxy-SHL 1] | weaker biofilm inhibition | – | –
CCCCc1c(NC2CCOC2=O)c(=O)c1=O (stereo not drawn) [butyl-SHL 8] | – | 48% | reduction of the maximum thickness of biofilm [1]: 38%; cytotoxicity on human neuroblastoma cancer cells (in words) (SK-N-SH cells): does not appear to be toxic
CCCCCCc1c(NC2CCOC2=O)c(=O)c1=O (stereo not drawn) [hexyl-SHL 9] | – | 42% | P. aeruginosa biofilm inhibition (in words) [2]: mild
O=C1OCCC1Nc1c(-c2ccccc2)c(=O)c1=O (stereo not drawn) [phenyl-SHL 10] | – | 44% | –
C=Cc1c(NC2CCOC2=O)c(=O)c1=O [vinyl-L-SHL 4] | weaker biofilm inhibition | – | cytotoxicity on human neuroblastoma cancer cells (in words) (SK-N-SH cells): toxic
